Source: patent US20210115000A1, “NILE RED DERIVATIVES FOR IMPROVED RATIOMETRIC IMAGING FOR NERVE SPECIFIC CONTRAST” (Oregon Health & Sciences University, priority 2018, published 2021)
Entries after “also recorded” stand apart in the source; their conditions may differ.

Legend:
[1] = tested on: sciatic nerve or brachial plexus nerve sites (adipose, nerve, muscle tissue); assay: In vivo imaging following direct/topical administration on rodent nerve sites; design: species or system male CD-1 mice; settings: for nerve accumulation: summary of in vitro, ex vivo and in vivo characterization
From the text: In vivo images were acquired using a previously published, custom-built small animal fluorescence imaging system, described briefly here.^27 Fluorescent images were obtained using a Qimaging EXi Blue monochrome camera (Surrey, British Columbia, CA) with a removable Bayer mask for collection of co-registered color and fluorescence images. A Photofluor II broad band light source (89 North) was expanded onto the surgical field through a liquid light guide and used unfiltered for white light illumination. Nile Red and NR5 were excitated using a 545 t 12.5 nm bandpass filter, while fluorescence emission images were collected with a 605±35 nm bandpass filter. Oxazine 4 (Exciton, West Chester, Ohio) was used for nerve and adipose co-staining and ratiometic imaging studies. Oxazine 4 was excited using a 620±30 nm bandpass filter, while fluorescence emission images were collected through a 700±37.5 nm bandpass filter. Approval for the use of animals in the study was obtained from the Institutional Animal Care and Use Committee (IACUC) at Oregon Health and Science University (OHSU). In vivo staining studies were carried out on male CD-1 mice using an optimized direct/topical administration protocol.^2 Staining was performed concurrently on no more than two nerve sites (sciatic nerve or brachial plexus) per mouse. Nile Red and all Nile Red derivatives were formulated in a previously published co-solvent formulation (10% DMSO, 5% Kolliphor, 63.75% serum and 21.25% PBS^14) at a final concentration of 100 μM. Each formulated fluorophore was incubated for 5 minutes on the nerve site (n=4 nerve sites/fluorophore), followed by 9 short flushes with PBS. The nerve site was then incubated with blank co-solvent not containing fluorophore for 5 minutes, followed again by 9 short flushes with PBS.

[2] = tested on: nerve, adipose and muscle tissue at nerve sites; assay: In vivo co-staining with Oxazine 4, ratiometric imaging and ROC curve analysis; design: species or system male CD-1 mice; settings: for ROC AUC of nerve-to-muscle contrast, change: 30 min after staining compared to immediately following staining
From the text: In vivo images were acquired using a previously published, custom-built small animal fluorescence imaging system, described briefly here.^27 Fluorescent images were obtained using a Qimaging EXi Blue monochrome camera (Surrey, British Columbia, CA) with a removable Bayer mask for collection of co-registered color and fluorescence images. A Photofluor II broad band light source (89 North) was expanded onto the surgical field through a liquid light guide and used unfiltered for white light illumination. Nile Red and NR5 were excitated using a 545 t 12.5 nm bandpass filter, while fluorescence emission images were collected with a 605±35 nm bandpass filter. Oxazine 4 (Exciton, West Chester, Ohio) was used for nerve and adipose co-staining and ratiometic imaging studies. Oxazine 4 was excited using a 620±30 nm bandpass filter, while fluorescence emission images were collected through a 700±37.5 nm bandpass filter. Approval for the use of animals in the study was obtained from the Institutional Animal Care and Use Committee (IACUC) at Oregon Health and Science University (OHSU). In vivo staining studies were carried out on male CD-1 mice using an optimized direct/topical administration protocol.^2 Staining was performed concurrently on no more than two nerve sites (sciatic nerve or brachial plexus) per mouse. Nile Red and all Nile Red derivatives were formulated in a previously published co-solvent formulation (10% DMSO, 5% Kolliphor, 63.75% serum and 21.25% PBS^14) at a final concentration of 100 μM. Each formulated fluorophore was incubated for 5 minutes on the nerve site (n=4 nerve sites/fluorophore), followed by 9 short flushes with PBS. The nerve site was then incubated with blank co-solvent not containing fluorophore for 5 minutes, followed again by 9 short flushes with PBS. In vivo co-staining was completed with (1) Nile Red and Oxazine 4 as well as (2) NR5 and Oxazine 4. For these studies, co-solvent formulated Oxazine 4 ([…]) was incubated on the nerve site for 5 minutes followed by 9 short flushes with PBS. The co-solvent formulated Nile Red or NR5 (100 μM) was then incubated on the nerve site for 5 minutes and also followed by 9 short flushes with PBS. Co-registered (1) Nile Red and Oxazine 4 or (2) NR5 and Oxazine 4 images were collected from n=4 nerve sites per groups (1) and (2). Ratiometric images were calculated and quantified using region of interest analysis on the white light images to identify the nerve, adipose and muscle tissue types. Due to the known cross talk of Oxazine 4 into the Nile Red channel,^2 the Oxazine 4 image was subtracted from the Nile Red or NR5 image resulting in an image of only adipose. The ratiometric images were then calculated as the Oxazine 4 image minus the corrected Nile Red or NR5 image divided by the corrected Nile Red or NR5 image. Receiver Operator Characteristic (ROC) curve analysis was performed to assess differences between the ratiometric images, where the area under the curve (AUC) was used as the metric to differentiate between groups (1) and (2) using custom written MatLab code.^28

[3] = 100 μM, immediately following direct administration
[4] = 30 minutes post direct administration
[5] = immediately following direct administration

Row | Compound | tissue specific fluorescence intensity [1, 3] | adipose to nerve contrast [1, 4] | adipose to muscle ratio [1, 5] | adipose to nerve ratio [1, 5] | tissue-specific contrast, adipose signal ([1]; out to 120 minutes after direct administration) | nerve accumulation [1] | ROC AUC of nerve-to-muscle contrast, change [2] | z-score, nerve-to-muscle contrast ([2]; NR5 and oxazine 4 costaining versus oxazine 4 alone, 30 min after staining) | z-score, nerve-to-muscle contrast ([2]; NR5 costaining with oxazine 4 compared to Nile Red costaining with oxazine 4, 30 min after staining) | z-score, nerve-to-adipose contrast ([2]; NR versus NR5 costaining with oxazine 4, 30 min after staining) | z-score, nerve-to-adipose contrast ([2]; NR versus NR5 costaining with oxazine 4, first time point (immediately after staining implied)) | z-score, nerve-to-muscle contrast ([2]; NR versus NR5 costaining with oxazine 4, immediately following staining) | ROC AUC nerve contrast ([2]; costaining with Oxazine 4, 30 minutes post direct administration) | ROC AUC nerve contrast ([2]; costaining with Oxazine 4, immediately following direct administration) | z-score, nerve-to-adipose contrast ([2]; oxazine 4 only staining versus NR5 costaining with oxazine 4, 30 min after staining) | z-score, nerve-to-adipose contrast ([2]; oxazine 4 only staining versus NR5 costaining with oxazine 4, first time point (immediately after staining implied)) | z-score, nerve-to-muscle contrast ([2]; oxazine 4 only staining versus NR5 costaining with oxazine 4, immediately following staining) | tissue specific fluorescence intensity ([1]; 30 minutes after direct administration) | adipose to muscle contrast [1, 4]
1 | CCN(CC)c1ccc2nc3c4ccc(-c5ccc(C#N)cc5)cc4c(=O)cc-3oc2c1 [NR5, 4-(9-(diethylamino)-5-oxo-5H-benzo[a]phenoxazin-3-yl)benzonitrile] | highest fluorescence signal compared to the other Nile Red derivatives; also recorded: highest fluorescence intensity in the adipose, nerve and muscle tissues of the synthesized Nile Red derivatives | higher adipose-to-nerve contrast compared to Nile Red; also recorded: increased | lower than Nile Red, adipose to muscle contrast was similar | increased contrast over control autofluorescence with similar adipose to nerve contrast | adipose signal was maintained throughout the 120 minute imaging time | minimal nerve accumulation | little change | -21.32 | 99.96 | 98.20 | 25.26 | 21.87 | improved nerve to adipose and nerve to muscle contrast ratios; also recorded: significantly higher nerve-to-adipose contrast | slightly improved values | 16.12 | 28.63 | 15.22 | – | –
2 | CCN(CC)c1ccc2nc3c4ccccc4c(=O)cc-3oc2c1 [Nile Red] | highest fluorescence signal compared to the other Nile Red derivatives; also recorded: strong fluorescence intensity | decreased | greatest adipose to muscle contrast | increased contrast over control autofluorescence with similar adipose to nerve contrast | – | some nerve accumulation | substantial drop in AUC value | – | – | – | – | – | – | – | – | – | – | decrease in adipose, nerve and muscle fluorescence | greatest
